Data from patent US12048686B2, “Compositions and methods for activating NRF2-dependent gene expression” (The University of Chicago, priority 2018, dated 2024).

Key:
[1] = LC-MS quantification of compound incubated with or without GSH (glutathione reactivity); assay type: physicochemical; conditions: 50 μM compound, GSH 1 mM in PBS, 1 hour and 48 hours
Procedure: FIG. 4 A high throughput screen identifies a non-covalent NRF2 activator chemical series which activate a robust NRF2 transcriptional program in multiple cell types. LC-MS quantification of CBR-470-1 (50 μM) incubated in the presence or absence of GSH (1 mM) in PBS for 1 hour (left) and 48 hours (right). Relative ion intensities within each time point were compared with representative chromatograms shown (n=2).

[2] = tested on: NRF2-dependent luciferase reporter (pTI-ARE-LUC); test: ARE-LUC reporter assay in HEK293T cells with PGK1 knockdown or overexpression; assay type: cell-based
Procedure: FIG. 1A-D. CBR-470-1-dependent inhibition of glycolysis activates NRF2 signaling. […] PGK1, Actin and Tubulin protein levels are shown from representative experiments (n=3). (c) Heat map depiction of relative metabolite levels in IMR32 cells treated for 30 min with CBR-470-1 (left) or viral shRNA knockdown of PGK1 (right) relative to DMSO and scramble shRNA controls, respectively. BPG refers to both 2,3-BPG and 1,3-BPG, whereas 1,3-BPG specifically refers to the 1,3-isomer.
High throughput screening and ARE-LUC reporter assay. For high throughput screening, IMR32 cells were plated at 5×10^3 cells per well in white 384-well plates in 40 μL of growth medium. […] After 24 hour incubation, ARE-LUC luminance values were recorded on an Envision instrument after the addition of 30 μL of Bright Glo reagent solution (Promega, diluted 1:3 in water). […] For overexpression and knockdown experiments in HEK293T with ARE-LUC reporter readouts, 5×10^5 cells were plated on poly-d-lysine coated plates and transfected with 1.5 μg of overexpression or shRNA plasmid and 500 ng of pTI-ARE-LUC using Optimem medium and Fugene in the same mode as above. […] ARE-LUC luminance values were recorded on an Envision plate reader 24 hours later by the addition of 75 μL of Bright Glo reagent solution (1:3 in water).

[3] = tested on: Primary murine alveolar macrophages; test: PM-induced mRNA expression in primary murine alveolar macrophages; assay type: cell-based; conditions: pretreated 4 hours, 4 hours later
Procedure: FIG. 19A-C. Primary murine alveolar macrophages were treated with PM or vehicle control (media) in the absence or presence of CBR-470-1 (pretreated 4 hours prior to PM) and measured IL-6, TNFa and NQO1 mRNA 4 hours later.

[4] = tested on: MHS cells (a murine alveolar macrophage cell line); test: PM- or LPS-induced mRNA expression in MHS cells; assay type: cell-based
Procedure: FIG. 14A-B. MHS cells (a murine alveolar macrophage cell line) were treated with particulate matter (PM) or LPS and vehicle control (media) in the absence or presence of CBR-470-1 (pretreated 4 hours prior to PM/LPS) and measured IL-6 mRNA 4 hours later.
FIG. 15A-B. MHS cells were treated with particulate matter (PM) or LPS and vehicle control (media) in the absence or presence of CBR-470-1 (also noted as Drug in the figure) (pretreated 4 hours prior to PM/LPS) and measured TNFa and NQO1 mRNA 4 hours later. […] NQO1 (NAD(P)H:quinone oxidoreductase), also known as DT-diaphorase, is a major regulator of oxidative stress and activator of mitomycins. ROS produced during metabolic processes are normally converted into harmless products by antioxidant enzymes such as NQO1.
FIG. 16A-B. MHS cells were treated with particulate matter (PM) or LPS and vehicle control (media) in the absence or presence of different doses of CBR-470 (pretreated 4 hours prior to PM/LPS) and measured IL-6 mRNA 4 hours later.
FIG. 17A-B. MHS cells were treated with particulate matter (PM) or LPS and vehicle control (media) in the absence or presence of different doses of CBR-470-1 (pretreated 4 hours prior to PM/LPS) and measured TNFa and NQO1 mRNA 4 hours later.
FIG. 18A-C. MHS cells were treated with particulate matter (PM) or LPS and vehicle control (media) in the absence or presence of CBR-470-1 (5 uM, pretreated 4 hours prior to PM/LPS) and measured IL-6, TNFa and NQO1 mRNA 4 hours and 24 hours later.

[5] = tested on: NRF2 target genes NQO1 and HMOX1; test: Quantitative RT-PCR of NRF2 target genes in IMR32 cells; assay type: cell-based; conditions: MGx 1 mM
Procedure: FIG. 2A-F. Methylglyoxal modifies KEAP1 to form a covalent, high molecular weight dimer and activate NRF2 signaling. (a) Time-course, anti-FLAG Western blot analysis of whole cell lysates from HEK293T cells expressing FLAG-KEAP1 treated with DMSO or CBR-470-1. (b) Western blot monitoring of FLAG-KEAP1 migration in HEK293 T lysates after incubation with central glycolytic metabolites in vitro (1 and 5 mM, left and right for each metabolite). (c) FLAG-KEAP1 (red) and β-actin (green) from HEK293T cells treated with MGx (5 mM) for 8 hr. (d) Relative NQO1 and HMOX1 mRNA levels in IMR32 cells treated with MGx (1 mM) or water control (n=3). (e) LC-MS/MS quantitation of cellular MGx levels in IMR32 cells treated with CBR-470-1 relative to DMSO (n=4). (f) ARE-LUC reporter activity in HEK293T cells with transient shRNA knockdown of GLO1 (n=8). Univariate two-sided t-test (d, f); data are mean±SEM of biologically independent samples.
Quantitative RT-PCR. Cells were collected by trypsinization and subsequent centrifugation at 500 g. […] Quantitative RT-PCR reactions were measured on a Viia 7 Real-Time PCR system (Thermo) using a Clontech SYBR green-based master mix. Reactions were normalized to TUBG1 levels for each biological replicate and relative transcript abundance calculated using the comparative Ct method.

[6] = pretreated 4 hours, measured 4 hours later

reactivity in glutathione assays [1]	EC50 of ARE-LUC reporter activation ([2]; knockdown of PGK1)	EC50 of ARE-LUC reporter activation ([2]; overexpression of PGK1)	SMILES	IL-6 mRNA [3]	NQO1 mRNA [3]	TNFa mRNA [3]	NQO1 mRNA ([4]; different doses, 4 hours)	TNFa mRNA ([4]; different doses, 4 hours)	IL-6 mRNA [4, 6]	NQO1 mRNA [4, 6]	TNFa mRNA [4, 6]	expression of NRF2 target genes NQO1 and HMOX1 [5]
not reactive in glutathione assays	decreased	increased	CC(C)CN[C@H]1CS(=O)(=O)C[C@@H]1S(=O)(=O)c1ccc(Cl)cc1 [CBR-470-1]	attenuated PM-induced l6 and TNFa mRNA expression	induced NQO1 (Nrf2 target gene)	attenuated PM-induced l6 and TNFa mRNA expression	induced NQO1 (Nrf2 target gene) under both PM and LPS in a dose dependent manner	attenuated PM- and LPS-induced TNFa mRNA expression	abolished PM- and LPS-induced il6 mRNA expression	induced NQO1 (Nrf2 target gene) under both PM and LPS	abolished PM- and LPS-induced TNFa mRNA expression	
			CC(=O)C=O [MGx, methylglyoxal, reference compound]									functionally activated expression of the downstream NRF2 target genes NQO1 and HMOX1
